Data from BigSolDB 2.1.

`O=c1cnc(Br)c[nH]1` showed a solubility (mole fraction) (in DMF, 278.15 K) of 0.00576, a solubility (mole fraction) (in DMF, 283.15 K) of 0.00768 and a solubility (mole fraction) (in DMF, 288.15 K) of 0.00988. It also gave a solubility (mole fraction) (in DMF, 293.15 K) of 0.0124, a solubility (mole fraction) (in DMF, 298.15 K) of 0.0151 and a solubility (mole fraction) (in DMF, 303.15 K) of 0.0181. It also gave a solubility (mole fraction) (in DMF, 308.15 K) of 0.0219, a solubility (mole fraction) (in DMF, 313.15 K) of 0.026 and a solubility (mole fraction) (in DMF, 318.15 K) of 0.0309. It also gave a solubility (mole fraction) (in DMF, 323.15 K) of 0.0365, a solubility (mole fraction) (in acetone, 278.15 K) of 0.00534 and a solubility (mole fraction) (in acetone, 283.15 K) of 0.00685. For the same molecule, the solubility (mole fraction) (in acetone, 288.15 K) was 0.00877, the solubility (mole fraction) (in acetone, 293.15 K) was 0.0106 and the solubility (mole fraction) (in acetone, 298.15 K) was 0.013. It also gave a solubility (mole fraction) (in acetone, 303.15 K) of 0.0161, a solubility (mole fraction) (in acetone, 308.15 K) of 0.0194 and a solubility (mole fraction) (in acetone, 313.15 K) of 0.023. It also gave a solubility (mole fraction) (in acetone, 318.15 K) of 0.0275, a solubility (mole fraction) (in acetone, 323.15 K) of 0.0328 and a solubility (mole fraction) (in acetonitrile, 278.15 K) of 0.00413. It also gave a solubility (mole fraction) (in acetonitrile, 283.15 K) of 0.00519, a solubility (mole fraction) (in acetonitrile, 288.15 K) of 0.00625 and a solubility (mole fraction) (in acetonitrile, 293.15 K) of 0.00766. For the same molecule, the solubility (mole fraction) (in acetonitrile, 298.15 K) was 0.00941, the solubility (mole fraction) (in acetonitrile, 303.15 K) was 0.0113 and the solubility (mole fraction) (in acetonitrile, 308.15 K) was 0.0136. The solubility (mole fraction) (in acetonitrile, 313.15 K) was 0.0161, the solubility (mole fraction) (in acetonitrile, 318.15 K) was 0.019 and the solubility (mole fraction) (in acetonitrile, 323.15 K) was 0.0222. The solubility (mole fraction) (in ethanol, 278.15 K) was 0.000696, the solubility (mole fraction) (in ethanol, 283.15 K) was 0.000989 and the solubility (mole fraction) (in ethanol, 288.15 K) was 0.00128. The solubility (mole fraction) (in ethanol, 293.15 K) was 0.00166, the solubility (mole fraction) (in ethanol, 298.15 K) was 0.0021 and the solubility (mole fraction) (in ethanol, 303.15 K) was 0.00251. For the same molecule, the solubility (mole fraction) (in ethanol, 308.15 K) was 0.00303, the solubility (mole fraction) (in ethanol, 313.15 K) was 0.0036 and the solubility (mole fraction) (in ethanol, 318.15 K) was 0.00434. It also gave a solubility (mole fraction) (in ethanol, 323.15 K) of 0.00525, a solubility (mole fraction) (in ethylene glycol, 278.15 K) of 0.00014 and a solubility (mole fraction) (in ethylene glycol, 283.15 K) of 0.000203. For the same molecule, the solubility (mole fraction) (in ethylene glycol, 288.15 K) was 0.000284, the solubility (mole fraction) (in ethylene glycol, 293.15 K) was 0.000386 and the solubility (mole fraction) (in ethylene glycol, 298.15 K) was 0.000504. For the same molecule, the solubility (mole fraction) (in ethylene glycol, 303.15 K) was 0.00065, the solubility (mole fraction) (in ethylene glycol, 308.15 K) was 0.000845 and the solubility (mole fraction) (in ethylene glycol, 313.15 K) was 0.00111. For the same molecule, the solubility (mole fraction) (in ethylene glycol, 318.15 K) was 0.00139, the solubility (mole fraction) (in ethylene glycol, 323.15 K) was 0.00174 and the solubility (mole fraction) (in isopropanol, 278.15 K) was 0.00258. For the same molecule, the solubility (mole fraction) (in isopropanol, 283.15 K) was 0.00333, the solubility (mole fraction) (in isopropanol, 288.15 K) was 0.00439 and the solubility (mole fraction) (in isopropanol, 293.15 K) was 0.00534. For the same molecule, the solubility (mole fraction) (in isopropanol, 298.15 K) was 0.00678, the solubility (mole fraction) (in isopropanol, 303.15 K) was 0.00863 and the solubility (mole fraction) (in isopropanol, 308.15 K) was 0.0109. For the same molecule, the solubility (mole fraction) (in isopropanol, 313.15 K) was 0.0135, the solubility (mole fraction) (in isopropanol, 318.15 K) was 0.0168 and the solubility (mole fraction) (in isopropanol, 323.15 K) was 0.0205. It also gave a solubility (mole fraction) (in methanol, 278.15 K) of 0.000272, a solubility (mole fraction) (in methanol, 283.15 K) of 0.000366 and a solubility (mole fraction) (in methanol, 288.15 K) of 0.000485. The solubility (mole fraction) (in methanol, 293.15 K) was 0.000633, the solubility (mole fraction) (in methanol, 298.15 K) was 0.000782 and the solubility (mole fraction) (in methanol, 303.15 K) was 0.000951. For the same molecule, the solubility (mole fraction) (in methanol, 308.15 K) was 0.00116, the solubility (mole fraction) (in methanol, 313.15 K) was 0.0014 and the solubility (mole fraction) (in methanol, 318.15 K) was 0.00169. The solubility (mole fraction) (in methanol, 323.15 K) was 0.00203, the solubility (mole fraction) (in n-propanol, 278.15 K) was 0.00382 and the solubility (mole fraction) (in n-propanol, 283.15 K) was 0.00472. The solubility (mole fraction) (in n-propanol, 288.15 K) was 0.00579, the solubility (mole fraction) (in n-propanol, 293.15 K) was 0.0072 and the solubility (mole fraction) (in n-propanol, 298.15 K) was 0.00879. For the same molecule, the solubility (mole fraction) (in n-propanol, 303.15 K) was 0.0106, the solubility (mole fraction) (in n-propanol, 308.15 K) was 0.0129 and the solubility (mole fraction) (in n-propanol, 313.15 K) was 0.0152. It also gave a solubility (mole fraction) (in n-propanol, 318.15 K) of 0.018, a solubility (mole fraction) (in n-propanol, 323.15 K) of 0.0213 and a solubility (mole fraction) (in propylene glycol, 278.15 K) of 0.000194. The solubility (mole fraction) (in propylene glycol, 283.15 K) was 0.00025, the solubility (mole fraction) (in propylene glycol, 288.15 K) was 0.000338 and the solubility (mole fraction) (in propylene glycol, 293.15 K) was 0.000448. It also gave a solubility (mole fraction) (in propylene glycol, 298.15 K) of 0.000589, a solubility (mole fraction) (in propylene glycol, 303.15 K) of 0.000766 and a solubility (mole fraction) (in propylene glycol, 308.15 K) of 0.000961. It also gave a solubility (mole fraction) (in propylene glycol, 313.15 K) of 0.00121, a solubility (mole fraction) (in propylene glycol, 318.15 K) of 0.00152 and a solubility (mole fraction) (in propylene glycol, 323.15 K) of 0.00187. The solubility (mole fraction) (in water, 278.15 K) was 8.21e-06, the solubility (mole fraction) (in water, 283.15 K) was 1.29e-05 and the solubility (mole fraction) (in water, 288.15 K) was 1.81e-05. The solubility (mole fraction) (in water, 293.15 K) was 2.46e-05, the solubility (mole fraction) (in water, 298.15 K) was 3.2e-05 and the solubility (mole fraction) (in water, 303.15 K) was 4.13e-05. It also gave a solubility (mole fraction) (in water, 308.15 K) of 5.32e-05, a solubility (mole fraction) (in water, 313.15 K) of 6.69e-05 and a solubility (mole fraction) (in water, 318.15 K) of 8.43e-05. For the same molecule, the solubility (mole fraction) (in water, 323.15 K) was 0.000106.
